Like-named read-outs stand apart in the source and are kept apart here.
Tested on: HBV
Assay: Viral production from HepAD38 cells, viral load by qPCR of HBV core sequence
Assay type: cell-based
Conditions: 5 days, supernatant HBV DNA by qPCR, read-out: Viral Load EC50 Activity range
Outline: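 HepAD38 cells in tetracycline-free medium with 2% FBS, 50,000 cells/well, treated 5 days at 37° C. with compound from 10 μM top concentration (1% DMSO final). Supernatant HBV DNA measured by TaqMan qPCR of core sequence against standards, versus DMSO wells; viability by CellTiter-Glo; EC50/CC50 by four-parameter fit.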

[1] = Hepatitis B virus, HePAD38, 120 h

| SMILES | EC50 | EC50 [1] |
| --- | --- | --- |
| Cn1cc(C2CC3CC(c4nn(C)c(N)c4C(=O)Nc4ccc(F)c(Cl)c4)CC3C2)cn1 (centres unmarked) [AIA-049] | < 100 nM | – |
| Cn1cc(-c2ccc([C@H]3CC[C@@H](c4nn(C)c(N)c4C(=O)Nc4ccc(F)c(Cl)c4)C3)cc2)cn1 [AIA-050-A, 5-Amino-N-(3-chloro-4-fluorophenyl)-1-methyl-3-((1R,3S)-3-(4-(1-methyl-1H-pyrazol-4-yl)phenyl)cyclopentyl)-1H-pyrazole-4-carboxamide] | – | < 100 nM |
| Cn1cc(-c2ccc([C@H]3CC[C@H](c4nn(C)c(N)c4C(=O)Nc4ccc(F)c(Cl)c4)C3)cc2)cn1 [AIA-050-B, 5-amino-N-(3-chloro-4-fluorophenyl)-1-methyl-3-((1S,3S)-3-(4-(1-methyl-1H-pyrazol-4-yl)phenyl)cyclopentyl)-1H-pyrazole-4-carboxamide] | – | < 100 nM |
| CN1CC2CC(c3nn(C)c(N)c3C(=O)Nc3ccc(F)c(Cl)c3)CC2C1 (centres unmarked) [AIA-052, 5-Amino-N-(3-chloro-4-fluorophenyl)-1-methyl-3-(2-methyloctahydrocyclopenta [c]pyrrol-5-yl)-1H-pyrazole-4-carboxamide] | – | 500 to 10000 nM |
| CC(C)N1CC2CC(c3nn(C)c(N)c3C(=O)Nc3ccc(F)c(Cl)c3)CC2C1 (centres unmarked) [AIA-053, 5-Amino-N-(3-chloro-4-fluorophenyl)-3-(2-isopropyloctahydrocyclopenta[c]pyrrol-5-yl)-1-methyl-1H-pyrazole-4-carboxamide] | – | 500 to 10000 nM |
| CC(N1CC2CC(c3nn(C)c(N)c3C(=O)Nc3ccc(F)c(Cl)c3)CC2C1)C(F)(F)F (centres unmarked) [AIA-054, 5-Amino-N-(3-chloro-4-fluorophenyl)-1-methyl-3-(2-(1,1,1-trifluoropropan-2-yl)octahydrocyclopenta[c]pyrrol-5-yl)-1H-pyrazole-4-carboxamide] | – | < 100 nM |
| Cn1nc(C2CC3CSCC3C2)c(C(=O)Nc2ccc(F)c(Cl)c2)c1N (centres unmarked) [AIA-055] | < 100 nM | – |
| Cn1nc(C2CC3CC(OC(C)(C)C)CC3C2)c(C(=O)Nc2ccc(F)c(Cl)c2)c1N (centres unmarked) [AIA-058, 5-Amino-3-(5-(tert-butoxy)octahydropentalen-2-yl)-N-(3-chloro-4-fluorophenyl)-1-methyl-1H-pyrazole-4-carboxamide] | – | < 100 nM |
| Cn1nc(C2CC3CC(N)CC3C2)c(C(=O)Nc2ccc(F)c(Cl)c2)c1N (centres unmarked) [AIA-073] | 100 to 500 nM | – |
| Cn1nc(C2CC3CC([S+](C)[O-])CC3C2)c(C(=O)Nc2ccc(F)c(Cl)c2)c1N (centres unmarked) [AIA-074] | < 100 nM | – |
| CC[S+]([O-])C1CC2CC(c3nn(C)c(N)c3C(=O)Nc3ccc(F)c(Cl)c3)CC2C1 (centres unmarked) [AIA-075, 5-Amino-N-(3-chloro-4-fluorophenyl)-3-(5-(ethylsulfinyl)octahydropentalen-2-yl)-1-methyl-1H-pyrazole-4-carboxamide] | – | < 100 nM |
| Cn1nc(C2CC3CC(O)(C4CC4)CC3C2)c(C(=O)Nc2ccc(F)c(Cl)c2)c1N (centres unmarked) [AIA-077, 5-Amino-N-(3-chloro-4-fluorophenyl)-3-(5-cyclopropyl-5-hydroxyoctahydropentalen-2-yl)-1-methyl-1H-pyrazole-4-carboxamide] | – | < 100 nM |
| CC(C)S(=O)(=O)N1CC2CC(c3nn(C)c(N)c3C(=O)Nc3ccc(F)c(Cl)c3)CC2C1 (centres unmarked) [AIA-085, 5-Amino-N-(3-chloro-4-fluorophenyl)-3-(2-(isopropylsulfonyl)octahydrocyclopentyl[c]pyrrol-5-yl)-1-methyl-1H-pyrazole-4-carboxamide] | – | < 100 nM |
| Cn1nc(C2CC3CC(NS(=O)(=O)C(F)(F)F)CC3C2)c(C(=O)Nc2ccc(F)c(Cl)c2)c1N (centres unmarked) [AIA-086] | < 100 nM | – |
| Cn1nc(C2CC3CC(OCC(F)(F)F)CC3C2)c(C(=O)Nc2ccc(F)c(Cl)c2)c1N (centres unmarked) [AIA-101, 5-Amino-N-(3-chloro-4-fluorophenyl)-1-methyl-3-(5-(2,2,2-trifluoroethoxy)octahydropentalen-2-yl)-1H-pyrazole-4-carboxamide] | – | < 100 nM |
| CNC1CC2CC(c3nn(C)c(N)c3C(=O)Nc3ccc(F)c(Cl)c3)CC2C1 (centres unmarked) [AIA-102] | 100 to 500 nM | – |
| Cn1nc(C2CC3CC(NCCO)CC3C2)c(C(=O)Nc2ccc(F)c(Cl)c2)c1N (centres unmarked) [AIA-103, 5-Amino-N-(3-chloro-4-fluorophenyl)-3-(5-((2-hydroxyethyl)amino)octahydropentalen-2-yl)-1-methyl-1H-pyrazole-4-carboxamide] | – | 100 to 500 nM |
| Cn1nc([C@@H]2CC3CC(O)(CS(C)(=O)=O)C[C@@H]3C2)c(C(=O)Nc2ccc(F)c(Cl)c2)c1N (some centres unmarked) [AIA-227-1, 5-Amino-N-(3-chloro-4-fluorophenyl)-3-((2r,5r)-5-hydroxy-5-(methylsulfonylmethyl)octahydropentalen-2-yl)-1-methyl-1H-pyrazole-4-carboxamide] | < 100 nM | – |
| Cn1nc([C@H]2CC3C[C@](O)(CS(C)(=O)=O)CC3C2)c(C(=O)Nc2ccc(F)c(Cl)c2)c1N (some centres unmarked) [AIA-227-2, 5-Amino-N-(3-chloro-4-fluorophenyl)-3-((2s,5s)-5-hydroxy-5-(methylsulfonylmethyl)octahydropentalen-2-yl)-1-methyl-1H-pyrazole-4-carboxamide] | – | < 100 nM |

| SMILES | EC50 | EC50 [1] |
| --- | --- | --- |
| Cn1nc(C2CC3CCCC3C2)c(C(=O)Nc2ccc(F)c(Cl)c2)c1N (centres unmarked) [AIA-232] | < 100 nM | – |
| Cn1nc(C2CC3CC(O)(CC(=O)O)CC3C2)c(C(=O)Nc2ccc(F)c(Cl)c2)c1N (centres unmarked) [AIA-241] | < 100 nM | – |
| Cn1nc(C2CC3CC(N4CCNC(=O)C4)CC3C2)c(C(=O)Nc2ccc(F)c(C#N)c2)c1N (stereo not drawn) [AIA-246, 5-Amino-N-(3-cyano-4-fluorophenyl)-1-methyl-3-(5-(3-oxopiperazin-l-yl)octahydropentalen-2-yl)-1H-pyrazole-4-carboxamide] | – | < 100 nM |
| Cn1nc(C2CC3CC(O)(CS(=O)(=O)C4CC4)CC3C2)c(C(=O)Nc2ccc(F)c(Cl)c2)c1N (centres unmarked) [AIA-252-1, 5-Amino-N-(3-chloro-4-fluorophenyl)-3-(5-((cyclopropylsulfonyl)methyl)-5-hydroxyortahydropentalen-2-yl)-1-methyl-1H-pyrazole-4-carboxamide] | – | < 100 nM |
| Cn1nc(C2CC3CC(O)(COC(F)F)CC3C2)c(C(=O)Nc2ccc(F)c(Cl)c2)c1N (centres unmarked) [AIA-253-1] | < 100 nM | – |
| Cn1nc(C2CC3CC(O)(COCC(F)(F)F)CC3C2)c(C(=O)Nc2ccc(F)c(Cl)c2)c1N (centres unmarked) [AIA-254, 5-Amino-N-(3-chloro-4-fluorophenyl)-3-((2s,5s)-5-hydroxy-5-((2,2,2-trifluoroethoxy)methyl)octahydropentalen-2-yl)-1-methyl-1H-pyrazole-4-carboxamide] | – | < 100 nM |
| CCC1OC[C@]2(CC3C[C@H](c4nn(C)c(N)c4C(=O)Nc4ccc(F)c(Cl)c4)C[C@@H]3C2)O1 (some centres unmarked) [AIA-255-5] | < 100 nM | – |
| CC(C)C1(O)CC2C[C@@H](c3nn(C)c(N)c3C(=O)Nc3ccc(F)c(Cl)c3)C[C@H]2C1O (some centres unmarked) [AIA-257-1] | < 100 nM | – |
| Cn1nc(C2CC3CC(O)(C(C)(C)O)CC3C2)c(C(=O)Nc2ccc(F)c(Cl)c2)c1N (centres unmarked) [AIA-257] | < 100 nM | – |
| Cn1nc(C2CC3CC(O)(CSCC(F)(F)F)CC3C2)c(C(=O)Nc2ccc(F)c(Cl)c2)c1N (centres unmarked) [AIA-258-1, 5-Amino-N-(3-chloro-4-fluorophenyl)-3-(5-hydroxy-5-(((2,2,2-trifluoroethyl)thio)methyl)octahydropentalen-2-yl)-1-methyl-1H-pyrazole-4-carboxamide] | – | < 100 nM |
| Cn1nc(C2CC3CC(O)(C[S+]([O-])CC(F)(F)F)CC3C2)c(C(=O)Nc2ccc(F)c(Cl)c2)c1N (centres unmarked) [AIA-259-A, 5-Amino-N-(3-chloro-4-fluorophenyl)-3-((2r,5r)-5-hydroxy-5-((2,2,2-trifluoroethylsulfinyl)methyl)octahydropentalen-2-yl)-1-methyl-1H-pyrazole-4-carboxamide] | – | < 100 nM |
| Cn1nc(C2CC3CC(O)(CSC(C)(C)C)CC3C2)c(C(=O)Nc2ccc(F)c(Cl)c2)c1N (centres unmarked) [AIA-262-1, 5-Amino-3-(5-((tert-butylthio)methyl)-5-hydroxyoctahydropentalen-2-yl)-N-(3-chloro-4-fluorophenyl)-1-methyl-1H-pyrazole-4-carboxamide] | – | < 100 nM |
| Cn1nc(C2CCN(c3ccccc3)C2)c(C(=O)Nc2ccc(F)c(Cl)c2)c1N (centres unmarked) [AIA-262] | 100 to 500 nM | – |
| CN(C)S(=O)(=O)CC1(O)CC2CC(c3nn(C)c(N)c3C(=O)Nc3ccc(F)c(Cl)c3)CC2C1 (centres unmarked) [AIA-265, 5-Amino-N-(3-chloro-4-fluorophenyl)-3-(5-((N,N-dimethylsulfamoyl)methyl)-5-hydroxyoctahydropentalen-2-yl)-1-methyl-1H-pyrazole-4-carboxamide] | – | < 100 nM |
| CN(C)C(=O)CC1(O)CC2CC(c3nn(C)c(N)c3C(=O)Nc3ccc(F)c(Cl)c3)CC2C1 (centres unmarked) [AIA-270, 5-Amino-N-(3-chloro-4-fluorophenyl)-3-(5-(2-(dimethylamino)-2-oxoethyl)-5-hydroxyoctahydropentalen-2-yl)-1-methyl-1H-pyrazole-4-carboxamide] | – | < 100 nM |
| Cn1nc(C2CCC(c3ccccc3Cl)C2)c(C(=O)Nc2ccc(F)c(Cl)c2)c1N (centres unmarked) [AIA-272, 5-Amino-N-(3-chloro-4-fluorophenyl)-3-(3-(2-chlorophenyl)cyclopentyl)-1-methyl-1H-pyrazole-4-carboxamide] | – | < 100 nM |
| Cn1nc(C2CCC(c3ccc(Cl)cc3)C2)c(C(=O)Nc2ccc(F)c(Cl)c2)c1N (centres unmarked) [AIA-274, 5-Amino-N-(3-chloro-4-fluorophenyl)-3-(3-(4-chlorophenyl)cyclopentyl)-1-methyl-1H-pyrazole-4-carboxamide] | – | 100 to 500 nM |
| Cn1nc(C2CC3CC(O)(C(=O)NC4CC4)CC3C2)c(C(=O)Nc2ccc(F)c(Cl)c2)c1N (centres unmarked) [AIA-274-1, 5-Amino-N-(3-chloro-4-fluorophenyl)-3-(5-(cyclopropylcarbamoyl)-5-hydroxyoctahydropentalen-2-yl)-1-methyl-1H-pyrazole-4-carboxamide] | – | < 100 nM |
| Cn1nc(C2CC3CC(O)(C(=O)NC4CC4)CC3C2)c(C(=O)Nc2ccc(F)c(Cl)c2)c1N (centres unmarked) [AIA-274-2, 5-Amino-N-(3-chloro-4-fluorophenyl)-3-(5-(cyclopropylcarbamoyl)-5-hydroxyoctahydropentalen-2-yl)-1-methyl-1H-pyrazole-4-carboxamide] | < 100 nM | – |

Source: patent US11560370B1, “5-membered heteroaryl carboxamide compounds for treatment of HBV” (Assembly Biosciences, Inc., priority 2018, dated 2023)
